Reference: PMC6381277, “Cardiolipin Alters Rhodobacter sphaeroides Cell Shape by Affecting Peptidoglycan Precursor Biosynthesis” (mBio, 2019)

Target: T1, MurG (Cereibacter sphaeroides, UniProt Q3J4M2)
T1 construct: full-length murG in pET28b(+), N-terminal His tag cut with thrombin, E. coli BL21(DE3); Triton X-100 extraction; start encoded by primer MGRPLLL
T1 sequence (Q3J4M2 1-364): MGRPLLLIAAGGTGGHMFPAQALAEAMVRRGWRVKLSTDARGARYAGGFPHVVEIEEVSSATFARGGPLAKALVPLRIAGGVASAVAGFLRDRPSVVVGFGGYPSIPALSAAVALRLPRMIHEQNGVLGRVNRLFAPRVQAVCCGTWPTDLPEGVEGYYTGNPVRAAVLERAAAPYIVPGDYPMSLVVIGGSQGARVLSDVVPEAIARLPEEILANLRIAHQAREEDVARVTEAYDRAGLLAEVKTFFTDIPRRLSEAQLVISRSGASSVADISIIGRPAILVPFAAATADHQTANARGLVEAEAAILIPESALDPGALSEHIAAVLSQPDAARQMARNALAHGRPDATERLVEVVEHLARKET
Experiment: liposome-pelleting assay, SDS-PAGE densitometry
Assay type: binding
Settings: 6 uM MurG, 4 mM phospholipid, 0.5 uM BSA, 20 mM Tris pH 8.0, room temperature

| Compound | % pelleted MurG (10 mol% PGL in PC liposomes (mixed membrane)) [%] | % pelleted MurG (10 mol% CL in PC liposomes (mixed membrane)) [%] |
| --- | --- | --- |
| CCCCCCCC/C=C\CCCCCCCC(=O)OC[C@H](COP(=O)(O)OCC(O)CO)OC(=O)CCCCCCC/C=C\CCCCCCCC (mixture of isomers) [PGL, 1,2-di-(9Z-octadecenoyl)-sn-glycero-D-phospho-(1′-rac-glycerol)] | 92 | – |
| CCCCCCCC/C=C\CCCCCCCC(=O)OC[C@H](COP(=O)(O)OCC(O)COP(=O)(O)OC[C@@H](COC(=O)CCCCCCC/C=C\CCCCCCCC)OC(=O)CCCCCCC/C=C\CCCCCCCC)OC(=O)CCCCCCC/C=C\CCCCCCCC (some centres unmarked) [CL, 1,1′,2,2′-tetra-(9Z-octadecenoyl) cardiolipin] | – | 92 |
